Source: patent US10640457B2, “Histone acetyltransferase activators and uses thereof” (The Trustees of Columbia University in the City of New York, priority 2009, dated 2020)
Values joined by “and” are separate entries in the source; they are usually repeats but may differ in a detail not shown here. Equal values may be shown once. “Also recorded” adds a separate entry of the source.

Key:
HDAC1 = HDAC1 (Homo sapiens, UniProt Q13547); experiment: HDAC1 fluorogenic activity assay; settings: for % Activity: Repeat1/Repeat2, listed as OA2
HDAC1, sequence (Q13547 whole entry): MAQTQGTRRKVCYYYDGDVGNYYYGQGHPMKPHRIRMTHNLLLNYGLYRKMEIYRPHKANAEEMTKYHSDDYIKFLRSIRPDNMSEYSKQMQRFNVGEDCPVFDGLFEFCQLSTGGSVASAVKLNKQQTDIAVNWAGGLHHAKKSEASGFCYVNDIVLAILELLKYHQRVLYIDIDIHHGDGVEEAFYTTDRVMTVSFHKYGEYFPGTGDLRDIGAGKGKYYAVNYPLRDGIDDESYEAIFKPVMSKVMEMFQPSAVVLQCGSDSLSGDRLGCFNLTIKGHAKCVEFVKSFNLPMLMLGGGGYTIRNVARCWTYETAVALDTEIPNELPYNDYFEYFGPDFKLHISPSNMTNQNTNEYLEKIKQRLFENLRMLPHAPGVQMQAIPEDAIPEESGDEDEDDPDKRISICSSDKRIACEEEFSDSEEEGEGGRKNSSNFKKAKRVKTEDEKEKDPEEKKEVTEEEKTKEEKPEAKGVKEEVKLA

APP/PS1 mice = experiment: RAWM and fear conditioning in APP/PS1 mice (YF2); format: in vivo
From the text: Without being bound by theory, given that these experiments were obtained with a synthetic preparation of Aβ42, it is difficult to know if this is the same as Aβ that causes synaptic dysfunction in AD brains. Thus, we validated these experiments in an Aβ-depositing mouse model, the APP/PS1 mouse^[P35] (herein incorporated by reference in its entirety). These mice have been well characterized with respect to AD pathology^[P34-38] (each herein incorporated by reference in its entirety). They start to show synaptic and memory impairment as early as 3 months of age^[P34] (herein incorporated by reference in its entirety). Transgenic mice with a double mutation APP […]/PS1(M146L) (line 6.2) start to develop large plaques in cortex and hippocampus at the age of 8-10 weeks. They have a reduction in LTP by 3 months of age together with impairment of contextual fear memory and spatial working memory.

p300 = target: T1, p300 (Homo sapiens, UniProt Q09472); experiment: In vitro HAT activation assay, p300; format: biochemical; settings: in vitro assays; FIG. 72
T1 construct: we will use the catalytic domain of human CBP, PCAF, p300 and GCNS (Enzo Life Sci., USA); purchased Enzo Life Sci
T1 sequence (Q09472 1287-1663 limits assumed): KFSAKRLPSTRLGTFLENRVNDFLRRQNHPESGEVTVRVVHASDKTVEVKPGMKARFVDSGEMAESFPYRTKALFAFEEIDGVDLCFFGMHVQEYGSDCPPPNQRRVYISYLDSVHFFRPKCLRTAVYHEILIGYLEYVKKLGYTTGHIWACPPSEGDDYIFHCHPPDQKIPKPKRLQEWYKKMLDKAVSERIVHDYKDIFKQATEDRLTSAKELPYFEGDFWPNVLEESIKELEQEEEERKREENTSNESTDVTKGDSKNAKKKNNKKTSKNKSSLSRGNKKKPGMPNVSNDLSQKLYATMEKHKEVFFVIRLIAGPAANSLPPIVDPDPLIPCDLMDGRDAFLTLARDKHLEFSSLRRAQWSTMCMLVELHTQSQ
From the text: (§1) Compounds will be tested for HAT activator activity first, using the HAT Assay kit from Active Motif (USA, CA). For this assay, we will use the catalytic domain of human CBP, PCAF, p300 and GCNS (Enzo Life Sci., USA). The catalytic domains for the remaining HATs will be produced using New England Biolabs K. lactis Protein Expression Kit. […] When assayed against all other HATs, they must show at least a 50 fold greater potency towards CBP and/or PCAF.

CBP = target: T2, CBP (Homo sapiens, UniProt Q92793); experiment: In vitro HAT activation assay, CBP; format: biochemical
T2 construct: we will use the catalytic domain of human CBP, PCAF, p300 and GCNS (Enzo Life Sci., USA); purchased Enzo Life Sci
T2 sequence (Q92793 1323-1700 limits assumed): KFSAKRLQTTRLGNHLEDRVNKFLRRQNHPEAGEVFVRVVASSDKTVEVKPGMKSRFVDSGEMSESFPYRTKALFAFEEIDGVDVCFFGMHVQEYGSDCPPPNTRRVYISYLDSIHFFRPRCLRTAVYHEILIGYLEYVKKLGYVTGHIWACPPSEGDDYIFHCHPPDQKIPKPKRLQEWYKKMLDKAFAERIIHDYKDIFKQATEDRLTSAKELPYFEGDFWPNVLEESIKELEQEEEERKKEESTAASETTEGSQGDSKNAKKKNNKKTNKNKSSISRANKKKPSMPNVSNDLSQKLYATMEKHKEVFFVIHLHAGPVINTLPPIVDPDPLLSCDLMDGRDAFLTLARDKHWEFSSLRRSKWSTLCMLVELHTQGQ
From the text: as §1

HDAC3/NCOR2 = HDAC3/NCOR2 (Homo sapiens, UniProt O15379); experiment: HDAC3/NCOR2 fluorogenic activity assay
HDAC3/NCOR2, sequence (O15379 whole entry): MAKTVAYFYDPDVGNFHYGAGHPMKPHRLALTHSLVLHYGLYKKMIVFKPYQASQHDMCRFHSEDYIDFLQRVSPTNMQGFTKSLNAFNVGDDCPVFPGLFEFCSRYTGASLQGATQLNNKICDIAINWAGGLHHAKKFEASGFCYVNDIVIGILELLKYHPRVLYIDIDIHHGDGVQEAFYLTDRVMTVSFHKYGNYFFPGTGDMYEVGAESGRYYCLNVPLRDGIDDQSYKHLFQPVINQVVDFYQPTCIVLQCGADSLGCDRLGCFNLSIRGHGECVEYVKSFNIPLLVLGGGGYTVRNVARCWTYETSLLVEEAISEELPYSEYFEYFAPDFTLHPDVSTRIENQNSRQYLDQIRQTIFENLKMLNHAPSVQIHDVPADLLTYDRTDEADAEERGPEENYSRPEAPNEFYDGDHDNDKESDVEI
HDAC3/NCOR2, sequence (Q9Y618 395-489 partner limits assumed): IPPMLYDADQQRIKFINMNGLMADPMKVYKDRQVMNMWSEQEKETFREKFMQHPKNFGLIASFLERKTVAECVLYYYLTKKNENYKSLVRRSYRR

[1] = in vivo, ip
HDAC6 = target: T3, HDAC6 (Homo sapiens, UniProt Q9UBN7); experiment: HDAC6 fluorogenic activity assay; settings: for % Activity: Repeat1/Repeat2, listed as OA2
T3 sequence (Q9UBN7 1-1215): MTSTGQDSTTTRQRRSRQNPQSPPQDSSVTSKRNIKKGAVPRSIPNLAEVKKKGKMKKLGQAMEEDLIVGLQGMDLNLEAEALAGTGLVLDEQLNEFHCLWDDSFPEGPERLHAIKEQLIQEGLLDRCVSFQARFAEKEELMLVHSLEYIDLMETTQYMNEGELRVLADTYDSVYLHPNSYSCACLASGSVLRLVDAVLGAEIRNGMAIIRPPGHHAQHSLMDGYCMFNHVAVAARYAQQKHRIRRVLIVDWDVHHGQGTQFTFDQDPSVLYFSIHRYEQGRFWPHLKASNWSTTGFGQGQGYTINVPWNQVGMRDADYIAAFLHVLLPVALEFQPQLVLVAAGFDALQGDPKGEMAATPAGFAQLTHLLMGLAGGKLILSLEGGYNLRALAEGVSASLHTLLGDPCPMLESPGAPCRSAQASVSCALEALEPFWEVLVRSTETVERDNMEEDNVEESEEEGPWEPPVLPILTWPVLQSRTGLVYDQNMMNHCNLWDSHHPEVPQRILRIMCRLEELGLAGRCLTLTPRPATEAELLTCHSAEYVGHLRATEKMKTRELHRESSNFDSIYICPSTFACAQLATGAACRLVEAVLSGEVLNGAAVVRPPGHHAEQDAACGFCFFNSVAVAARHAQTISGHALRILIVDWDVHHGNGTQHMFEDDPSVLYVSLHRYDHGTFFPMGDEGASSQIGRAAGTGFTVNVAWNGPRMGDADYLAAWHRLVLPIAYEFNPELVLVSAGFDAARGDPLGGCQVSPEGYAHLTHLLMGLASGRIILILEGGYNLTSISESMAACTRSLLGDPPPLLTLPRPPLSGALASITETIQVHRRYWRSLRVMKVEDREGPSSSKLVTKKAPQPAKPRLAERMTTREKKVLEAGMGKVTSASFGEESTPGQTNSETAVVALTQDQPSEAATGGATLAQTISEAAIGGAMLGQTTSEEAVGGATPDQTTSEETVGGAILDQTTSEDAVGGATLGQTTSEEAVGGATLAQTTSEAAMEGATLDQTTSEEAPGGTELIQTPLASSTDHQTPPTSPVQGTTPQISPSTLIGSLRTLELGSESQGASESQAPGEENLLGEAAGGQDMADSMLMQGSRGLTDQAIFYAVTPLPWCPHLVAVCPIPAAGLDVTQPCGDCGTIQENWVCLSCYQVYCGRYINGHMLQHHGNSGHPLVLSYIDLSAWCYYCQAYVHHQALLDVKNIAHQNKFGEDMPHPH

Question: Which results are given for `CCOc1cccc(OCCN(C)C)c1C(=O)Nc1ccc(Cl)c(C(F)(F)F)c1` [YF2]?
Answer: IC50 (HDAC1): > 200 µM; % Activity (HDAC1; OA2 Log[nM] 0.5): 98.80% and 98.28%; % Activity (HDAC1; OA2 Log[nM] 1.0): 97.64% and 98.21%; % Activity (HDAC1; OA2 Log[nM] 1.5): 96.72% and 97.14%; % Activity (HDAC1; OA2 Log[nM] 2.0): 96.42% and 96.10%; % Activity (HDAC1; OA2 Log[nM] 2.5): 95.81% and 97.49%; % Activity (HDAC1; OA2 Log[nM] 3.0): 96.63% and 95.68%; % Activity (HDAC1; OA2 Log[nM] 3.5): 93.12% and 97.60%; % Activity (HDAC1; OA2 Log[nM] 4.0): 91.35% and 92.53%; % Activity (HDAC1; OA2 Log[nM] 4.5): 92.01% and 90.19%; % Activity (HDAC1; OA2 Log[nM] 5.3): 63.73% and 61.76%; reference memory defect (RAWM) (APP/PS1 mice; APP/PS1 mice, 20 mg/Kg i.p. 30 min before 1st and 2nd group of tests, 20 mg/kg): ameliorates; also recorded: rescued; contextual fear memory deficit (APP/PS1 mice; APP/PS1 mice, 20 mg/Kg i.p. 30 min before training for FC, 20 mg/kg): ameliorates; memory in WT mice (APP/PS1 mice; WT littermates, 20 mg/Kg i.p.): without affecting; effect on p300 activity (p300): did not interfere; also recorded: increases p300 activity; EC50 (CBP): 2.7 µM; IC50 (HDAC3/NCOR2): > 200 µM; dose up to which no adverse effects were induced [1]: up to 300 mg/kg; IC50 (HDAC6): > 200 µM; % Activity (HDAC6; OA2 Log[nM] 0.5): 104.75% and 106.28%; % Activity (HDAC6; OA2 Log[nM] 1.0): 106.10% and 100.51%; % Activity (HDAC6; OA2 Log[nM] 1.5): 96.75% and 108.50%; % Activity (HDAC6; OA2 Log[nM] 2.0): 100.33% and 105.31%; % Activity (HDAC6; OA2 Log[nM] 2.5): 99.30% and 99.28%; % Activity (HDAC6; OA2 Log[nM] 3.0): 100.06% and 94.62%; % Activity (HDAC6; OA2 Log[nM] 3.5): 96.79% and 97.61%; % Activity (HDAC6; OA2 Log[nM] 4.0): 94.62% and 100.10%; % Activity (HDAC6; OA2 Log[nM] 4.5): 79.13% and 87.65%; % Activity (HDAC6; OA2 Log[nM] 5.3): 70.40% and 102.77%
